Results reported in patent US9738634B2, “Heterocyclic amide compound and herbicide” (SYNGENTA PARTICIPATIONS AG, priority 2013, dated 2017).

Key:
Format in all cases: in vivo
oval-leafed pondweed [1] = assay: Test Example 1: weedkilling efficacy, preemergent weed treatment in the submerged state; C: oval-leafed pondweed; details: treatment dosage 252 g/ha
Outline: (§1)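 Emulsion diluted with water to the specified per-hectare dosage is applied onto flood water (4 cm) over alluvial soil on the sowing day, with barnyard grass, bulrush and pondweed seeded and rice (2.5-leaf) transplanted; plants grow at 25–30 °C and are rated at 3 weeks.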

catchweed [2] = assay: Test Example 3: weedkilling efficacy through soil treatment; O: catchweed; details: treatment dosage 315 g/ha
Outline: (§2)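 Crop and weed responses were judged three weeks after a uniform surface spray of the water-diluted emulsion at the given g/ha rate. Seeds sat beneath about 1.5 cm of sterilized diluvial soil, and boxes stood in a greenhouse at 25 to 30° C.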

Italian ryegrass [3] = assay: Test Example 4: weedkilling efficacy by foliar treatment; I: Italian ryegrass; details: treatment dosage 315 g/ha
Outline: (§3)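 Seeds are spot-sown into sterilized diluvial soil and covered with about 1.5 cm of soil. After 14 days' greenhouse growth at 25 to 30° C, plants are sprayed on stems and leaves with diluted emulsion at the stated g/ha rate, then scored at 3 weeks.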

barnyard grass [4] = assay: Test Example 1: weedkilling efficacy, preemergent weed treatment in the submerged state; A: barnyard grass; details: treatment dosage 252 g/ha
Outline: as §1

soybean [5] = assay: Test Example 4: foliar treatment, effect on crop; d: soybean; details: treatment dosage 315 g/ha
Outline: as §3

green foxtail [6] = assay: Test Example 4: weedkilling efficacy by foliar treatment; E: green foxtail; details: treatment dosage 315 g/ha
Outline: as §3

Italian ryegrass [7] = assay: Test Example 3: weedkilling efficacy through soil treatment; I: Italian ryegrass; details: treatment dosage 315 g/ha
Outline: as §2

chickweed [8] = assay: Test Example 3: weedkilling efficacy through soil treatment; N: chickweed; details: treatment dosage 315 g/ha
Outline: as §2

beet [9] = assay: Test Example 4: foliar treatment, effect on crop; f: beet; details: treatment dosage 315 g/ha
Outline: as §3

directly sown rice [10] = assay: Test Example 4: foliar treatment, effect on crop; b: directly sown rice; details: treatment dosage 315 g/ha
Outline: as §3

fig-leafed goosefoot [11] = assay: Test Example 4: weedkilling efficacy by foliar treatment; M: fig-leafed goosefoot; details: treatment dosage 315 g/ha
Outline: as §3

fig-leafed goosefoot [12] = assay: Test Example 3: weedkilling efficacy through soil treatment; M: fig-leafed goosefoot; details: treatment dosage 315 g/ha
Outline: as §2

catchweed [13] = assay: Test Example 4: weedkilling efficacy by foliar treatment; O: catchweed; details: treatment dosage 315 g/ha
Outline: as §3

bulrush [14] = assay: Test Example 1: weedkilling efficacy, preemergent weed treatment in the submerged state; B: bulrush; details: treatment dosage 252 g/ha
Outline: as §1

Indian mallow [15] = assay: Test Example 3: weedkilling efficacy through soil treatment; K: Indian mallow; details: treatment dosage 315 g/ha
Outline: as §2

barnyard grass [16] = assay: Test Example 2: weedkilling efficacy, growth period weed treatment in the submerged state; A: barnyard grass; details: treatment dosage 252 g/ha
Outline: (§4)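 First, alluvial soil in pots is flooded to 4 cm and mixed seed is sown. Next, plants grow in a greenhouse at 25 to 30° C until the 1-2 leaf stage. Then diluted emulsion is applied onto the water surface at the given g/ha rate, and injury is assessed after 3 weeks.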

birds-eye speedwell [17] = assay: Test Example 4: weedkilling efficacy by foliar treatment; p: birds-eye speedwell; details: treatment dosage 315 g/ha
Outline: as §3

wild oat [18] = assay: Test Example 4: weedkilling efficacy by foliar treatment; G: wild oat; details: treatment dosage 315 g/ha
Outline: as §3

soybean [19] = assay: Test Example 3: soil treatment, effect on crop; d: soybean; details: treatment dosage 315 g/ha
Outline: as §2

chickweed [20] = assay: Test Example 4: weedkilling efficacy by foliar treatment; N: chickweed; details: treatment dosage 315 g/ha
Outline: as §3

wheat [21] = assay: Test Example 3: soil treatment, effect on crop; e: wheat; details: treatment dosage 315 g/ha
Outline: as §2

bulrush [22] = assay: Test Example 2: weedkilling efficacy, growth period weed treatment in the submerged state; B: bulrush; details: treatment dosage 252 g/ha
Outline: as §4

black-grass [23] = assay: Test Example 4: weedkilling efficacy by foliar treatment; H: black-grass; details: treatment dosage 315 g/ha
Outline: as §3

crabgrass [24] = assay: Test Example 3: weedkilling efficacy through soil treatment; D: crabgrass; details: treatment dosage 315 g/ha
Outline: as §2

wheat [25] = assay: Test Example 4: foliar treatment, effect on crop; e: wheat; details: treatment dosage 315 g/ha
Outline: as §3

birds-eye speedwell [26] = assay: Test Example 3: weedkilling efficacy through soil treatment; p: birds-eye speedwell; details: treatment dosage 315 g/ha
Outline: as §2

Indian mallow [27] = assay: Test Example 4: weedkilling efficacy by foliar treatment; K: Indian mallow; details: treatment dosage 315 g/ha
Outline: as §3

crabgrass [28] = assay: Test Example 4: weedkilling efficacy by foliar treatment; D: crabgrass; details: treatment dosage 315 g/ha
Outline: as §3

directly sown rice [29] = assay: Test Example 3: soil treatment, effect on crop; b: directly sown rice; details: treatment dosage 315 g/ha
Outline: as §2

green foxtail [30] = assay: Test Example 3: weedkilling efficacy through soil treatment; E: green foxtail; details: treatment dosage 315 g/ha
Outline: as §2

redroot pigweed [31] = assay: Test Example 3: weedkilling efficacy through soil treatment; L: redroot pigweed; details: treatment dosage 315 g/ha
Outline: as §2

transplanted rice = assay: Test Example 1: preemergent weed treatment in the submerged state, effect on crop; a: transplanted rice; details: treatment dosage 252 g/ha
Outline: as §1

wild oat [32] = assay: Test Example 3: weedkilling efficacy through soil treatment; G: wild oat; details: treatment dosage 315 g/ha
Outline: as §2

corn [33] = assay: Test Example 4: foliar treatment, effect on crop; c: corn; details: treatment dosage 315 g/ha
Outline: as §3

beet [34] = assay: Test Example 3: soil treatment, effect on crop; f: beet; details: treatment dosage 315 g/ha
Outline: as §2

oval-leafed pondweed [35] = assay: Test Example 2: weedkilling efficacy, growth period weed treatment in the submerged state; C: oval-leafed pondweed; details: treatment dosage 252 g/ha
Outline: as §4

redroot pigweed [36] = assay: Test Example 4: weedkilling efficacy by foliar treatment; L: redroot pigweed; details: treatment dosage 315 g/ha
Outline: as §3

black-grass [37] = assay: Test Example 3: weedkilling efficacy through soil treatment; H: black-grass; details: treatment dosage 315 g/ha
Outline: as §2

corn [38] = assay: Test Example 3: soil treatment, effect on crop; c: corn; details: treatment dosage 315 g/ha
Outline: as §2

SMILES: CC1=C(c2ccccc2)C(=O)N(C(C)(C)C(=O)Nc2nnc(C(F)(F)F)s2)CO1 [B-1-10]
- C (oval-leafed pondweed) weedkilling efficacy grade (oval-leafed pondweed [1]): 5 (weed kill ratio 90% or more, (practically complete withering))
- O (catchweed) weedkilling efficacy grade (catchweed [2]): 0 (weed kill ratio 5% or less (practically no effect))
- I (Italian ryegrass) weedkilling efficacy grade (Italian ryegrass [3]): 0 (weed kill ratio 5% or less (practically no effect))
- A (barnyard grass) weedkilling efficacy grade (barnyard grass [4]): 5 (weed kill ratio 90% or more, (practically complete withering))
- d (soybean) effect on crop grade (soybean [5]): 2 (weed kill ratio 20% or more, less than 40%)
- E (green foxtail) weedkilling efficacy grade (green foxtail [6]): 5 (weed kill ratio 90% or more, (practically complete withering))
- I (Italian ryegrass) weedkilling efficacy grade (Italian ryegrass [7]): 3 (weed kill ratio 40% or more, less than 70%)
- N (chickweed) weedkilling efficacy grade (chickweed [8]): 2 (weed kill ratio 20% or more, less than 40%)
- f (beet) effect on crop grade (beet [9]): 2 (weed kill ratio 20% or more, less than 40%)
- b (directly sown rice) effect on crop grade (directly sown rice [10]): 5 (weed kill ratio 90% or more, (practically complete withering))
- M (fig-leafed goosefoot) weedkilling efficacy grade (fig-leafed goosefoot [11]): 3 (weed kill ratio 40% or more, less than 70%)
- M (fig-leafed goosefoot) weedkilling efficacy grade (fig-leafed goosefoot [12]): 3 (weed kill ratio 40% or more, less than 70%)
- O (catchweed) weedkilling efficacy grade (catchweed [13]): 2 (weed kill ratio 20% or more, less than 40%)
- B (bulrush) weedkilling efficacy grade (bulrush [14]): 5 (weed kill ratio 90% or more, (practically complete withering))
- K (Indian mallow) weedkilling efficacy grade (Indian mallow [15]): 3 (weed kill ratio 40% or more, less than 70%)
- A (barnyard grass) weedkilling efficacy grade (barnyard grass [16]): 4 (weed kill ratio 70% or more, less than 90%)
- P (birds-eye speedwell) weedkilling efficacy grade (birds-eye speedwell [17]): 4 (weed kill ratio 70% or more, less than 90%)
- G (wild oat) weedkilling efficacy grade (wild oat [18]): 2 (weed kill ratio 20% or more, less than 40%)
- d (soybean) effect on crop grade (soybean [19]): 0 (weed kill ratio 5% or less (practically no effect))
- N (chickweed) weedkilling efficacy grade (chickweed [20]): 2 (weed kill ratio 20% or more, less than 40%)
- e (wheat) effect on crop grade (wheat [21]): 0 (weed kill ratio 5% or less (practically no effect))
- B (bulrush) weedkilling efficacy grade (bulrush [22]): 5 (weed kill ratio 90% or more, (practically complete withering))
- H (black-grass) weedkilling efficacy grade (black-grass [23]): 4 (weed kill ratio 70% or more, less than 90%)
- D (crabgrass) weedkilling efficacy grade (crabgrass [24]): 5 (weed kill ratio 90% or more, (practically complete withering))
- e (wheat) effect on crop grade (wheat [25]): 0 (weed kill ratio 5% or less (practically no effect))
- P (birds-eye speedwell) weedkilling efficacy grade (birds-eye speedwell [26]): 4 (weed kill ratio 70% or more, less than 90%)
- K (Indian mallow) weedkilling efficacy grade (Indian mallow [27]): 4 (weed kill ratio 70% or more, less than 90%)
- D (crabgrass) weedkilling efficacy grade (crabgrass [28]): 5 (weed kill ratio 90% or more, (practically complete withering))
- b (directly sown rice) effect on crop grade (directly sown rice [29]): 5 (weed kill ratio 90% or more, (practically complete withering))
- E (green foxtail) weedkilling efficacy grade (green foxtail [30]): 5 (weed kill ratio 90% or more, (practically complete withering))
- L (redroot pigweed) weedkilling efficacy grade (redroot pigweed [31]): 3 (weed kill ratio 40% or more, less than 70%)
- a (transplanted rice) effect on crop grade (transplanted rice): 3 (weed kill ratio 40% or more, less than 70%)
- G (wild oat) weedkilling efficacy grade (wild oat [32]): 4 (weed kill ratio 70% or more, less than 90%)
- c (corn) effect on crop grade (corn [33]): 4 (weed kill ratio 70% or more, less than 90%)
- f (beet) effect on crop grade (beet [34]): 3 (weed kill ratio 40% or more, less than 70%)
- C (oval-leafed pondweed) weedkilling efficacy grade (oval-leafed pondweed [35]): 5 (weed kill ratio 90% or more, (practically complete withering))
- L (redroot pigweed) weedkilling efficacy grade (redroot pigweed [36]): 2 (weed kill ratio 20% or more, less than 40%)
- H (black-grass) weedkilling efficacy grade (black-grass [37]): 5 (weed kill ratio 90% or more, (practically complete withering))
- c (corn) effect on crop grade (corn [38]): 3 (weed kill ratio 40% or more, less than 70%)
